The text below walks through data of patent US6008356A, “Pharmaceutically available protoberberine salts derivatives, and protoberberine salts derivatives, and protoberberine derivatives and salts thereof” (priority 1998, dated 1999).

Counter-ions that a name gives are not always drawn.

For one data set, the system named is Candida albicans. The settings on record: oral, 350-700 mg/kg; Mirska et al. 1972; cited from earlier work.
For data set [1], the system named is fungi, such as Alternaria sp., Aspergillus flavus, Aspergdlus fumigatus, Candida albicans, Curvularia sp., Drechslera sp., Fusarium sp., Mucor sp., Penicillium …. The following applies: Mahajan et al. 1982; cited from earlier work.
The next data set concerns human. The following applies: may cause harmful or lethal effect on human in case of being dosed excessively; cited from earlier work.
The subject of the next data set is C. glabrata. The experiment in a line: MIC. In kind it is cell-based. The following applies: Nakaseomyces glabratus; C. glabrata; read-out: MIC.
For a further data set, the system named is E. floccosum. Nature of the data set: MIC. In kind it is cell-based, Epidermophyton floccosum. The settings on record: Epidermophyton floccosum; E. floccosum; read-out: MIC.
The subject of the next data set is male ICR mice. The following applies: mouse, in vivo.
The subject of the next data set is C. krusei. The experiment in a line: MIC. In kind it is cell-based. The settings on record: Pichia kudriavzevii; C. krusei; read-out: MIC.
A further data set concerns C. albicans OY 019. Nature of the data set: MIC. In kind it is cell-based, Candida albicans. The settings on record: Candida albicans, OY019; C. albicans OY 019; read-out: MIC.
For the next data set, the system named is C. albicans KCTC 1940. Nature of the data set: MIC. In kind it is cell-based, Candida albicans. The settings on record: Candida albicans, KCTC1940; C. albicans KCTC 1940; read-out: MIC.
In the next data set the test system is C. albicans ATCC 28838. The experiment in a line: MIC. The settings on record: Candida albicans, ATCC28838; C. albicans ATCC 28838; read-out: MIC. The data set is classed as cell-based, Candida albicans.
Another data set has as its system C. glulliermendi. Nature of the data set: MIC. In kind it is cell-based. The settings on record: C. glulliermendi; read-out: MIC.
In data set [2] the test system is cultured lung cells derived from chinese hamster. The data set is classed as cell-based.
A further data set relates to C. parapsilosis. Nature of the data set: MIC. The data set is classed as cell-based. The settings on record: Lodderomyces parapsilosis; C. parapsilosis; read-out: MIC.
A further data set has as its system salmonella typhimurium. The experiment in a line: bacterial reverse mutation test (Ames test). In kind it is cell-based. In general terms: The Ames test uses bacterial strains that need an amino acid and regain growth without it when mutated back.
For another data set, the system named is fungal infection of foot. The experiment in a line: 0.5% creamy formulation applied on male patients with fungal infection of foot. The following applies: 0.5% cream once a day for five days. The data set is classed as in vivo, human (male patients). The source says: The above 0.5% creamy formulation of the compound No. 62 was applied on infected area of 10 male patients with fungal infection of foot, in a proper amount once a day for five days.

For the next data set, the system named is C. albicans ATCC 10231. The experiment in a line: MIC. In kind it is cell-based. The settings on record: Candida albicans, ATCC10231; C. albicans ATCC 10231; read-out: MIC.
The next data set has as its system C. albicans OY 003. The experiment in a line: MIC. The data set is classed as cell-based, Candida albicans. The settings on record: Candida albicans, OY003; C. albicans OY 003; read-out: MIC.
The subject of the next data set is C. albicans U.K. The experiment in a line: MIC. In kind it is cell-based. The settings on record: Candida albicans; C. albicans U.K.; read-out: MIC.
The subject of another data set is Epidermophyton floccosum. Nature of the data set: Antifungal efficacy of creamy formulation against local fungal skin infection. The data set is classed as in vivo, mouse (SKH/1, hairless, male). The following applies: 0.5% cream, topical. On the procedure:
Specific pathogen free SKH/1 male mouse(Hairless) of which weight is 30-35 g and age is 5 weeks, was reared with sterilized water and feed for 12 night/day in the condition of 21-23° C. and of 50% relative humidity. Five mice were allocated by each group. After skin infection, each mouse was taken in separate cage. The strain of microorganism for infection(Epidermophyton floccosum) was cultivated on a flat medium of SDA(Sabouraud Dextrose Agar) for 5-7 days and after confirmation of macrocomidia, 3 ml of RPMI (Rosewell Park Memorial Institute) 1640 media per each flat medium was added thereto and then scraped well using loop to remove hyphae from media. The floating liquid was suspended briefly and then diluted with RPMI 1640 media to adjust the concentration of hyphae to 2×10^6 CFU/ml. Mouse was anesthetized and marked on back site(lumbosacral area) in a shape of circle of which diameter is 1.5 cm. Then, the inner part of marked skin was scratched with sand paper. The scratched part was covered with a filter paper to preserve inoculated microorganism for a long time and thereby stimulating the skin continuously. 0.2 ml of fungus solution of which concentration is adjusted as described above, was inoculated between the skin and filter paper. 5 Days after the inoculation, the filter paper was removed and the infection of skin was examined. The test formulations, 0.5% creamy formulations of the compounds Nos. 62 and 85, 1.0% creamy formulation of Terbinafine(Lamisile cream) and a placebo was applied on the infected areas in a same amount once a day for 5 days. The clinical evaluation on the change of the infected area in 5 days after the inoculation was performed and expressed numerically from 0 to 4. The daily change of the infected area was checked every day. The result of each group was compared with each other.
1: Mild erythema or small number of skin eruption
2: Well-demarcated erythema with scales or mild skin eruption of infected area
3: Wide area of marked skin eruption, scales, swelling or severe skin eruption with partial swelling and scales
4: The same as those of control, or severe skin eruption in entire lesion
The result was calculated as follows;
T: Average score of clinical evaluation in drug treated area
K: Average score of clinical evaluation in placebo control group
Moreover, the antifungal efficacies of the 0.5% creamy formulation of the compounds Nos. 29, 35, 60, 62, 63 and 85, and 1% creamy formulation of Terbinafme (Lamisil cream), which are measured by applying the above formulations on the skin infected with Epidermophyton floccosum of mouse which is the standard animal for the test of local fungal skin infection, i.e, Specific Pathogen Free SKH/1, are described in the following Table 4.

For another data set, the system named is C. albicans ATCC 11651. Nature of the data set: MIC. In kind it is cell-based, Candida albicans. The following applies: Candida albicans, ATCC11651; C. albicans ATCC 11651; read-out: MIC.
A further data set relates to C. albicans IFO 1385. The experiment in a line: MIC. In kind it is cell-based, Candida albicans. The following applies: Candida albicans, IFO1385; C. albicans IFO 1385; read-out: MIC.
A short description of another data set: acute oral toxicity. The settings on record: rat, in vivo, po, rats. On the procedure:
(§1) Meanwhile, the toxicity test of the compound of the present invention was performed using […]. The compound was suspended in propylene glycol. The resulting suspension was medicated respectively on 5 female rats and 5 male rats(SD) of which age are 5 weeks, via oral after 12 hour starvation. The general symtoms, weight change and lethal case of the above rats were investigated. In cases of tests of the compound Nos. 25, 62, 63 and 85 (delivery of 2,000 mg/kg), the general symtom and weight change were normal and the lethal case was not observed. […] The toxicity data on the compound Nos. 25, 62, 63 and 85 are described in the following Table 5. In light forgoings, the compounds of the present invention are safe in toxicity and have the excellent lethal effect and growth-inhibition effect against fungus.

The test system of the next data set is rats. The experiment in a line: acute oral toxicity. The following applies: rat, in vivo. On the procedure:
as §1

As for `COc1ccc2cc3[n+](cc2c1OC)CCc1cc2c(cc1-3)OCO2` [berberine sulfate], in the data set with Candida albicans, the “effect in mice infected with Candida albicans” value is given as “effective”. The “concentration inhibiting the growth of fungi” value in data set [1] was 10 to 25 mg/mL. Moreover, the toxicity entry in the data set with human was “exhibits intense toxicity”.
For orientation: MIC means the smallest concentration in the dilution series that meets the test's criterion for growth inhibition. By LD50 is commonly meant the dose at which mortality reaches 50%. As to `COc1ccc2c(Cc3ccc(C(C)(C)C)cc3)c3[n+](cc2c1OC)CCc1cc2c(cc1-3)OCO2` [compound 62, 13-(4-t-butylbenzyl)berberine chloride], the minimal inhibitory concentration (MIC) is over 100 µg/mL in the data set with C. glabrata; 12.5 µg/mL in the data set with E. floccosum; 3.12 µg/mL with C. krusei; 0.78 µg/mL in the data set with C. albicans OY 019; 0.78 µg/mL in the data set on C. albicans KCTC 1940; 0.78 µg/mL with C. albicans ATCC 28838. In addition, the minimal inhibitory concentration (MIC) with C. glulliermendi is 12.5 µg/mL; with C. parapsilosis, over 100 µg/mL; with C. albicans ATCC 10231 it was 6.25 µg/mL; in the data set on C. albicans OY 003, 0.78 µg/mL; with C. albicans U.K., 6.25 µg/mL; in the data set on C. albicans ATCC 11651, 0.78 µg/mL. Besides, the MIC with C. albicans IFO 1385 was found to be 6.25 µg/mL. Also, the “nucleus test (micronucleous test)” value in the data set on male ICR mice is “negative”. Further, the chromosome abnormality test result in data set [2] was “negative”. Also, in the data set with salmonella typhimurium, the AMES test entry was “negative”. Further, the remedial effect result in the data set with fungal infection of foot (in 8 of 10 male patients) was “more than 98%”. Moreover, in the data set on fungal infection of foot (of 10 male patients), the “patients exhibiting remedial effect more than 98%” value is recorded as 8 Patients. For the same compound, the “Efficacy (%) 0 day later” value with Epidermophyton floccosum (0 day later) is listed as 0%. In the data set on Epidermophyton floccosum (1 day later), the “Efficacy (%) 1 day later” value was 40.0%. In the data set with Epidermophyton floccosum (2 day later), the “Efficacy (%) 2 day later” value was 55.4%. In the data set with Epidermophyton floccosum (3 day later), the “Efficacy (%) 3 day later” value is 69.4%. For the same compound, in the data set on Epidermophyton floccosum (4 day later), the “Efficacy (%) 4 day later” value is recorded as 72.6%. The “Efficacy (%) 5 day later” value in the data set with Epidermophyton floccosum (5 day later) worked out at 76.3%. In addition, the “Efficacy (%) 6 day later” value in the data set with Epidermophyton floccosum (6 day later) was 79.2%. Moreover, the “Efficacy (%) 7 day later” value with Epidermophyton floccosum (7 day later) is 85.4%. The LD50 in the data set “acute oral toxicity” (female) is over 2700 mg/kg; in “acute oral toxicity” (male), over 3700 mg/kg. For the same compound, the lethal case result in the data set on rats is recorded as “not observed”.
